Laboratory results: US5922740A, “Heterocyclylcarbonyl substituted benzofuranyl-ureas” (Bayer Aktiengesellschaft, priority 1995, dated 1999)

Columns and labels:
B6D2F1 mice = assay: Endotoxin induced shock lethality in mice; format: in vivo; details: galactosamine-sensitized mice, LPS 0.01 μg/mouse; compound intravenously 1 hour prior LPS, doses of 3 to 30 mg/kg
Protocol: 9. Endotoxin Induced Shock Lethality in Mice
B6D2F1 mice (n=10) were sensitized with galactosamine (600 mg/kg), and shock and lethality were triggered by LPS (0.01 μg/mouse). The compounds were administered intravenously 1 hour prior LPS. Controls were LPS challenged mice without compound. Mice were dying 8 to 24 hours post LPS challenge. Example 2, 13 and 16 reduced the endotoxin medicated mortality about 70% to 100% at doses of 3 to 30 mg/kg.

human monocytes = assay: Endotoxin induced TNF release; format: cell-based; details: LPS 2 μg ml^-1, 18 to 24 hours, ELISA
Protocol: 7. Preparation of Human Monocytes
Blood was taken from normal donors. Monocytes were isolated from peripheral blood by density centrifugation, followed by centrifugal elutriation.
8. Endotoxin Induced TNF Release
Monocytes (1×10^6 ml^-1) were stimulated with LPS (2 μg ml^-1) and coincubated with the compounds at different concentrations (10^-4 to 10 μg ml^-1) Compounds were dissolved in DMSO/medium (2% v/v). The cells were incubated in RPMI-1640 medium glutamine/FCS supplemented and at 37° C. in a humidified atmosphere with 5% CO2. After 18 to 24 hours TNF was determined in the supernatants by an human TNF specific ELISA (medgenix). Controls were nonstimulated and LPS stimulated monocytes without compounds. Example 2, 13 and 16 induce inhibition of LPS driven TNF activity in human monocytes (IC50 : 10^-3 to 1 μg ml^-1).

SMILES: Cc1ccc2c(NC(N)=O)c(C(=O)c3cccnc3)oc2c1 [Example 16]
- reduction of endotoxin mediated mortality (B6D2F1 mice): 70% to 100
- IC50, inhibition of LPS driven TNF activity (human monocytes): 10^-3 to 1 μg ml^-1

SMILES: CC[n+]1ccc(C(=O)c2oc3cc(OC)ccc3c2NC(N)=O)cc1 [Example 13]
- reduction of endotoxin mediated mortality (B6D2F1 mice): 70% to 100
- IC50, inhibition of LPS driven TNF activity (human monocytes): 10^-3 to 1 μg ml^-1

SMILES: COc1ccc2c(NC(N)=O)c(C(=O)c3ccncc3)oc2c1 [Example 2]
- reduction of endotoxin mediated mortality (B6D2F1 mice): 70% to 100
- IC50, inhibition of LPS driven TNF activity (human monocytes): 10^-3 to 1 μg ml^-1
